Laboratory results taken from patent US6534489B1, “Organophosphorus compounds and the use thereof” (Jomaa Pharmaka GmbH, priority 1998, dated 2003).
Read-outs that look alike come from different tables or passages of the source.

Legend:
[1] = system: E. coli K12; assay: Antibacterial action: growth inhibition of E. coli K12 in LB medium (turbidity); assay type: cell-based; details: Escherichia coli, Example 10, overnight at 37° C., dilution series 500, 100, 50, 10 and 0 μmol l−1, growth assessed by turbidity, read-out: IC 50 values, E. coli
Protocol: Antibacterial action of the above-stated compounds 1 to 5
A dilution series comprising the concentrations 500, 100, 50, 10 and 0 μmol 1^−1 of the individual compounds 1 to 5 in LB medium is introduced into 5 culture microtubes in a volume of 0.5 ml. Each of the microtubes was inoculated with 10 μl of an overnight culture of E. coli K12 and shaken overnight at 37° C. Bacterial growth was assessed on the basis of the turbidity of the medium.

[2] = system: Plasmodium falciparum; assay: Antimalarial activity: in vitro Plasmodium falciparum culture, [3H]-hypoxanthine incorporation; assay type: cell-based; details: Example 11, asynchronous blood culture, 48 h + 24 h with [3H]-hypoxanthine, dilution series 100 to 0.14 μmol l−1, IC50 determined by extrapolating, read-out: IC 50 values, Plasmodium falciparum
Protocol: The antimalarial activity of compounds 1 to 5 was determined using in vitro cultures of the causative organism of malaria, Plasmodium falciparum. 200 μl of an asynchronous Plasmodium falciparum culture with a 0.4% blood parasite content and a haematocrit of 2% were loaded into each of the wells of a 96 well microtitre plate. A serial dilution series of the compounds was then prepared in steps of three between concentrations of 100 and 0.14 μmol 1^−1. The plates are incubated at 37° C., 3% CO2 and 5% O2 over a period of 48 hours. 30 μl of medium supplemented with 27 ηCi ml^−1 of [^3H]-hypoxanthine were then added to each well. After 24 hours' incubation, the parasites were harvested by filtration through glass fibre filters and the incorporated radioactivity was measured. Inhibition of parasite growth was measured as the percentage inhibition of tritium incorporation relative to a comparison without the substance. The median inhibitory concentration (IC50) of the substance was determined by extrapolating the values.

| Compound | IC50 [1] [nM] | IC50 ([2]; Plasmodium falciparum) [nM] | IC50 [2] [nM] |
| --- | --- | --- | --- |
| CC(=O)N(O)C(CCC1CCCCC1)CCP(=O)(O)O (stereo not shown) [Compound 2, 3-N-Acetyl-3-N-(hydroxylamino)-5-cyclohexyl-pentylphosphonic acid] | – | – | 157 |
| 3-acetyl-3-(N-hydroxylamino)-3-methyl-[2-(3-pyridyl)ethyl]propylphosphonic acid [Compound 5] | – | – | 183 |

Now from value to compound:

| IC50 [1] [nM] | IC50 ([2]; Plasmodium falciparum) [nM] | IC50 [2] [nM] | Compound |
| --- | --- | --- | --- |
| 762000 | 405 | – | CC(=O)C(C)(NO)C(CCc1ccccc1)CP(=O)(O)O (stereo not shown) [Compound 3, 3-acetyl-3-(N-hydroxylamino)-3-methyl-2-(2-phenylethyl)propylphosphonic acid] |
| 736000 | 375 | – | CC(=O)C(C)(NO)C(CCc1ccccn1)CP(=O)(O)O (stereo not shown) [Compound 4, 3-acetyl-3-(N-hydroxylamino)-3-methyl-2-[2-(2-pyridyl)ethyl]propylphosphonic acid] |
| – | – | 215 | CC(=O)N(O)C(CCc1ccccc1)CCP(=O)(O)O (stereo not shown) [Compound 1, 3-N-Acetyl-3-N-(hydroxylamino)-5-phenylpentylphosphonic acid] |
